Publication PMC9919735, “Cupressus arizonica Greene: Phytochemical Profile and Cosmeceutical and Dermatological Properties of Its Leaf Extracts” (Molecules, 2023)

Legend:
hyaluronidase enzyme = assay: hyaluronic acid degradation, DMAB colorimetric, absorbance […] nm; assay type: biochemical; settings: hyaluronic acid 1 mg/mL in 0.1 M acetate pH 3.5, CaCl2; positive control
[1] = target: T1, Collagenase enzyme, from Clostridium histolyticum (ChC); assay: FALGPA hydrolysis, absorbance […] nm; assay type: biochemical, Hathewaya histolytica; settings: Tricine buffer 50 mM, 400 mM NaCl, 10 mM CaCl2, pH 7.5, 15 min preincubation; positive control
T1 construct: gene colG; native enzyme preparation, ColG / ColH not distinguished

| Compound | Parameters IC50 (μg/mL) / Hyaluronidase (hyaluronidase enzyme) [µg/mL] | Parameters IC50 (μg/mL) / Collagenase [1] [µg/mL] |
| --- | --- | --- |
| O=c1cc(CO)occ1O [Kojic acid] | 14.46 ± 0.6 | – |
| O=c1c(O)c(-c2ccc(O)c(O)c2)oc2cc(O)cc(O)c12 [Quercetin] | – | 24.83 ± 1.8 |
